Experimental data taken from patent EP1420790B1, “USE OF BIBN4096 IN COMBINATION WITH OTHER ANTIMIGRAINE DRUGS FOR THE TREATMENT OF MIGRAINE” (Boehringer Ingelheim Pharma GmbH & Co.KG, priority 2001, dated 2003).

System: facial skin vasodilation induced by electrical trigeminal ganglion stimulation
Test: Measurement of facial skin blood flow (vasodilation induced by electrical trigeminal ganglion stimulation, laser Doppler flowmetry)
Type: in vivo, rat
Settings: for % of trigeminus stimulation: anaesthetized male wistar rats
Experimental: Facial skin blood flow was measured by a modified method described by Escott et al. ([…]., Connor, H. E., Brain, S. D. (1995), Trigeminal ganglion stimulation increases facial skin blood flow in the rat a major role for calcitonin gene-related peptide, Brain Research, 669(1), 93-99). Fasted male wistar rats (strain CHbb:THOM, 280-320g) were anaesthetized with sodium pentobarbitone (initially with 60 mg/kg i.p. and maintained throughout the experiment with an intraperitoneal infusion of 30 mg/kg/h through a 23 G needle using a solution of 10 mg/ml). Both sides of the buccal area of the facial skin were shaved and depilated with a commercial depilatory […], Germany). The trachea was cannulated and the animals were artificially respired (80 strokes/min) with room air supplemented with oxygen. The body temperature was maintained at 37°C by an automated heating pad. The left femoral artery and the left femoral vein were cannulated for the continuous measurement of arterial blood pressure and intravenous administration of test compounds, respectively. […] Heart rate was derived from the blood pressure signal. Blood pressure and heart rate were continuously monitored throughout the course of the experiment to assess the level of anaesthesia and to monitor the cardiovascular effects of the drugs used in this study. The animals were placed in a stereotaxic frame and a longitudinal incision was made in the scalp. […] The position of the electrodes in the trigeminal ganglia were checked visually at the end of each experiment following removal of the brain. The trigeminal ganglion was stimulated at 10 Hz, 1 mA, 1 msec for 30 seconds using a stimulator supplied by Hugo Sachs Elektronik (79232 March-Hugstetten, Germany). Microvascular blood flow changes in the facial skin were measured by Laser Doppler flowmetry with a Periflux laser doppler system (PeriFLUX 4001, wave length […]; time constant 3 s, Perimed AB, Järfälla, S-17526, Sweden). Standard laser doppler probes (PROBE 408) were positioned on either side of the face approximately 0.5 cm below the centre of the eye, an area innervated by the maxillary branch (V2) of the trigeminal nerve. Blood flow changes were measured as flux in arbitrary units and expressed as area under the flux curve (mm^2) according to Escott et al. (1995). […] The first stimulation was used as a control for the subsequent stimulations.

NCCCC[C@H](NC(=O)[C@@H](Cc1cc(Br)c(O)c(Br)c1)NC(=O)N1CCC(N2Cc3ccccc3NC2=O)CC1)C(=O)N1CCN(c2ccncc2)CC1 [BIBN 4096 BS, 1-[N^2-[3,5-Dibromo-N-[[4-(3,4-dihydro-2(1H)-oxochinazolin-3-yl)-1-piperidinyl]-carbonyl]-D-tyrosyl]-L-lysyl]-4-(4-pyridinyl)-piperazine]
% of trigeminus stimulation (BIBN 4096 BS 0.03 mg/kg intravenously 5 min prior to second stimulation, mean ± spread): 60.3 ± 5.1%
% inhibition compared to control value (BIBN 4096 BS 0.03 mg/kg intravenously 5 min prior to second stimulation, versus saline control): 27.1%

CN1C[C@H](C(=O)N[C@]2(C)O[C@@]3(O)[C@@H]4CCCN4C(=O)[C@H](Cc4ccccc4)N3C2=O)C[C@@H]2c3cccc4[nH]cc(c34)C[C@H]21 [DHE, Dihydroergotamin]
% inhibition compared to control value (rat, in vivo): 27.0%

CNS(=O)(=O)Cc1ccc2[nH]cc(CCN(C)C)c2c1 [Sumatriptan, sumatriptan]
% of trigeminus stimulation (Sumatriptan 1.0 mg/kg intravenously 5 min prior to second stimulation): 68.8 ± 6.8%
% inhibition compared to control value (Sumatriptan 1.0 mg/kg intravenously 5 min prior to second stimulation, versus saline control): 16.8%

CN(C)CCc1c[nH]c2ccc(C[C@H]3COC(=O)N3)cc12 [Zolmitriptan, zolmitriptan]
% of trigeminus stimulation (Zolmitriptan 0.1 mg/kg intravenously 5 min prior to second stimulation): 55.6 ± 4.8%
% inhibition compared to control value (Zolmitriptan 0.1 mg/kg intravenously 5 min prior to second stimulation, versus saline control): 32.8%
